Measured values as given in BindingDB's records for patent US9102669 (Janssen Pharmaceutica, 2015).

Molecular target: T1, Acyl-CoA desaturase 1 (Rattus norvegicus, UniProt P07308)
T1 sequence (P07308 whole entry): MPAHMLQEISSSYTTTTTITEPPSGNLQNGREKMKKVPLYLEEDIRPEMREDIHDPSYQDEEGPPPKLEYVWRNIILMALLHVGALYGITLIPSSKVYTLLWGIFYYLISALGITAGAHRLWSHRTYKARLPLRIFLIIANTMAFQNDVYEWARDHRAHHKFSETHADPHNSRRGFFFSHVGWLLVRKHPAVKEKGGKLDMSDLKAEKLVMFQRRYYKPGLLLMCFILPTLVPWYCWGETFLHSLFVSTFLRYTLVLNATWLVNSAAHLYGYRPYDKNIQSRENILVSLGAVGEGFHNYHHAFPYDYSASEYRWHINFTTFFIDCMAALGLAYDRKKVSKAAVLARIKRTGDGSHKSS
Test: Enzymatic Assay
Details: 25 °C
Procedure: The SCD1 enzymatic assay was done in a volume of 50 μL using 10 μg of RLM (prepared as described above) in a 96-well polypropylene plate (enzyme reaction buffer contains 0.1 M K-Phosphate Buffer, 10 mM ATP, 6 mM MgCl2. 1 mM CoA, 1 mM β-NADH, 1.6 mM L-glutathione, 20 μM Stearoyl-CoA). […] Test compound was then added to the reaction mixture at the selected concentration. After incubation at room temperature for 2 hours, 5 μL 1 N HCl was added to stop the reaction, followed by addition of 25 μL of 10% charcoal. The reaction mixture was then transferred to 96-well Multiscreen plate (Millipore, Cat#MSFCN6B50).

IC50: > 1 µM
Structure (SMILES): Cn1cc(-c2ccc(N3CCC(N4CCc5c(Cl)cc(Cl)cc54)CC3)nn2)cn1 [US9102669, 68]
